Publication PMC10269165 (Antimicrobial Agents and Chemotherapy, 2023)

Tested on: HCT-8 cells
Assay: WST-1 cytotoxicity assay in HCT-8 cells
Format: cell-based, human
Conditions: 24 h, read-out: Mean IC50 ± SEM, Cytotoxicity
Experimental: Compounds were tested for cytotoxicity in human ileocecal colorectal adenocarcinoma cells (HCT-8) (ATCC CCL-244; RRID:CVCL_2478) by using the cell proliferation reagent WST-1 (Roche) according to the manufacturer’s protocol. The WST-1 assay is a quantitative colorimetric assay for measurement of metabolically active cells. This assay is based on the reduction of the tetrazolium salt (WST-1) by viable cells. About 5 × 10^4 HCT-8 cells were seeded per well in 96-well plates and grown overnight in 200 μL of RPMI 1640 medium (without phenol red; Gibco) supplemented with 2.5 g/L of glucose, 1 mM sodium pyruvate, 1.5 g/L of sodium bicarbonate, 10% heat-inactivated FBS (Gibco), and 1× antibiotic-antimycotic (Gibco) at 37°C with 5% CO2 in a humidified incubator. Upon reaching 80 to 90% confluence, cells were treated with various concentrations of the test compounds for 24 h. Control wells received equivalent volumes of DMSO used in the reconstituted compounds. After 24 h of culture, 10 μL of the WST-1 reagent was added to each well, and the plates were incubated in the dark for 1 h at 37°C with 5% CO2. The plates were well agitated, and 150 μL of the medium from each well was transferred to a new clear flat-bottomed black 96-well plate (Corning). The absorbance was read at a test wavelength of 440 nm and a reference wavelength of 690 nm using a multimode microplate reader (Spectra Max iD3; Molecular Devices, USA). All of the reactions were prepared in triplicate. The dose-response curves were generated by nonlinear regression analysis with GraphPad PRISM software using control-normalized data to determine the half-maximal cytotoxicity (IC50) concentrations.

Row | Structure (SMILES) | IC50 [µM]
1 | COc1ccc(-c2c(C)c(C(=O)O)nc(-c3ccc4c(O)c(OC)c5c(c4n3)=NC(C)(C)N=5)c2N)c(O)c1OC [NSC62709] | 299 ± 6.27
2 | COc1cc(C)c2c(c1C=O)Oc1c(c(C)c(O)c3c1C(O)OC3=O)OC2=O (centres unmarked) [NSC87511] | 172 ± 8.68
3 | CO[C@H]1/C=C/O[C@@]2(C)Oc3c(C)c(O)c4c(O)c(cc(O)c4c3C2=O)NC(=O)/C(C)=C\C=C\[C@H](C)[C@H](O)[C@@H](C)[C@@H](O)[C@@H](C)[C@H](OC(C)=O)[C@@H]1C [NSC133100] | 102 ± 16.6
4 | CO[C@@H]1/C=C\O[C@]2(C)Oc3c(C)c(O)c4c(O)c(c(CN(C)C)c(O)c4c3C2=O)NC(=O)/C(C)=C\C=C[C@@H](C)[C@@H](O)[C@H](C)[C@@H](O)[C@H](C)[C@H](OC(C)=O)[C@@H]1C [NSC145612] | 302 ± 9.33
5 | CO[C@@H]1/C=C/O[C@@]2(C)Oc3c(C)c(O)c4c(c3C2=O)C(=N[C@@H]2CC[C@@H](O)O[C@H]2C)C=C(NC(=O)/C(C)=C\C(=O)[C@@H]2C[C@@H]2[C@H](O)[C@@H](C)[C@@H](O)[C@@H](C)[C@H](OC(C)=O)[C@@H]1C)C4=O [NSC177383] | 85.5 ± 2.77
